Results as given in patent US6743436B1, “Anesthetic composition for intravenous injection comprising propofol” (Kuhnil Pharm. Co., Ltd., priority 1999, dated 2004).

What was measured:
[1] = system: albino rat; test: Experiment 7: hemolysis after intravenous injection; assay type: in vivo; settings: for Af (absorbance of released hemoglobin at 540 nm) / Hemolysis: i.v. over one minute, arterial blood
Method: To determine the hemolysis of the formulation of Example 6, albino rat was incised with scissor at the upper part of left femoral region, at which each of vein and artery was cannulated, and then 10 mg/kg of the formulated drug was intravenously injected over one minute. After 0, 5, 10, 15, 30, 45 and 60 minutes, blood was collected from femoral artery in an amount of 100 μl each time. Blood was obtained after heparin-physiological saline and some blood filled in the catheter were removed few, seconds before collecting blood each time. After blood was collected, a small amount of heparin-physiological saline was introduced into the catheter connecting tube to prevent blood coagulation. 100 μl of the collected blood were mixed with 500 μl of physiological saline and then centrifuged with 3000 rpm for 10 minutes. 100 μl of the supernatant were transferred into microplate and the absorbance of released hemoglobin was measured at 540 nm. Hemolysis (%) was calculated according to the following equation. The control group used 70% propylene glycol (PG) solution.
In the above equation, A100 is the absorbance at the time of 100% hemolysis (100 μl of blood was mixed with 500 μl of water); A0 is the absorbance at the time of 0% hemolysis as the blank (Before injection of the drug, normal blood was mixed with 500 μl of physiological saline for the blank test), and Af is the absorbance of each specimen.

[2] = background statement; cited from earlier work

SMILES	Af (absorbance of released hemoglobin at 540 nm) ([1]; 5 min.)	Hemolysis ([1]; 5 min.)	Af (absorbance of released hemoglobin at 540 nm) ([1]; 10 min.)	Hemolysis ([1]; 10 min.)	Af (absorbance of released hemoglobin at 540 nm) ([1]; 15 min.)	Hemolysis ([1]; 15 min.)	Af (absorbance of released hemoglobin at 540 nm) ([1]; 30 min.)	Hemolysis ([1]; 30 min.)	Af (absorbance of released hemoglobin at 540 nm) ([1]; 45 min.)	Hemolysis ([1]; 45 min.)	Af (absorbance of released hemoglobin at 540 nm) ([1]; 60 min.)	Hemolysis ([1]; 60 min.)	Af (absorbance of released hemoglobin at 540 nm) ([1]; initial)	Hemolysis ([1]; initial)	absorbance relative to the formulation of Example 6 ([1]; i.v., 0-60 min)	hemolysis (in words) ([1]; i.v., 0-60 min)	octanol water partition coefficient [2]	pKa [2]
CC(O)CO (stereo not drawn) [70% PG, propylene glycol]	0.086	1.94%	0.091	2.06%	0.067	1.47%	0.038	0.76%	0.047	0.98%	0.041	0.84%	0.081	1.82%	80-90 times	causes hemolysis		
CC(C)c1cccc(C(C)C)c1O [propofol, 2,6-diisopropylphenol]																	4.33	10.4
